Among the data in US10221138B2, “Biaryl derivatives as GPR120 agonists” (LG CHEM, LTD., priority 2013, dated 2019) are EC50 values, retold here.

Usually EC50 stands for the midpoint of the concentration-response curve.

The target in this assay is T1, hGPR120 (Homo sapiens, UniProt Q5NUL3).
T1 construct: expressed in transfected cells; host or cells: CHO-K1
T1 sequence (Q5NUL3 1-361): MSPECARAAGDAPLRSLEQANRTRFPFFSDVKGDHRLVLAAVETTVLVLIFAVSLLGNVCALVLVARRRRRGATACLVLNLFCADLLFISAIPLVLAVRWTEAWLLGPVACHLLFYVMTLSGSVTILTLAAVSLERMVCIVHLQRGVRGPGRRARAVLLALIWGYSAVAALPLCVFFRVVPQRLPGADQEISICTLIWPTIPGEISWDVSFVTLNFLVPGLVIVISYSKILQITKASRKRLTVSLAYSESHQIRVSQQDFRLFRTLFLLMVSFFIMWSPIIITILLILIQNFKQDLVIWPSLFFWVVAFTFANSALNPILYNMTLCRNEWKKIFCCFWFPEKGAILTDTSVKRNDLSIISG
As to the kind of experiment: Measurement of activity of GPR120 agonist (cell-based calcium fluorescence assay). The following applies: CHO-K1 cells expressing Ga16 and hGPR120, Calcium 5 dye fluorescence; activity class; read-out: EC50. On the procedure:
CHO-K1 cells expressing Ga16 and hGPR120 were dispensed into each well of a 96-well plate (3×10^4 cells/100 μl/well) and then incubated in 5% CO2, 37° C. incubator for 18 hours. Each well was treated with 100 μl of Calcium 5 dye (Molecular Devices) solution including 2% DMSO and then incubated in 5% CO2, 37° C. incubator for 1 hour. Serially diluted GPR120 agonists were prepared to a final concentration of 0.5% DMSO in a 96-well plate.
Fluorescence increased by the serially diluted GPR120 agonists is calculated as a relative percent (%) value based on the fluorescence represented by the treatment of 1% DMSO only. […] The calculation of measurement was carried out by using statistical software (Prizm).
Activity is denoted based on the following criteria: […]
In the case of `O=C(O)CCCOc1ccc(-c2cccc(Oc3ccccc3)n2)cc1` [Example 1, 4-[4-(6-phenoxy-2-pyridyl)phenoxy]butyric acid], the half-maximal effective concentration (EC50) fell in the range of 200 to 2000 nM.

Take `CC(C)Sc1cccc(-c2cc(F)c(OCCCC(=O)O)c(F)c2)n1` [Example 2, 4-[2,6-difluoro-4-(6-isopropylsulfanyl-2-pyridyl)phenoxy]butyric acid]: the EC50 was below 200 nM.

Regarding `O=C(O)CCCOc1c(F)cc(-c2cccc(Oc3ccccc3)n2)cc1F` [Example 3, 4-[2,6-difluoro-4-(6-phenoxy-2-pyridyl)phenoxy]butyric acid], the EC50 was below 200 nM.

For the compound `CC(C)Sc1cccc(-c2ccc(OCCCC(=O)O)c(Cl)c2)n1` [Example 4, 4-[2-chloro-4-(6-isopropylsulfanyl-2-pyridyl)phenoxy]butyric acid], the EC50 was 200 to 2000 nM.

Turning to `CC(C)Sc1cccc(-c2ccc(OCCCC(=O)O)c(F)c2)n1` [Example 5, 4-[2-fluoro-4-(6-isopropylsulfanyl-2-pyridyl)phenoxy]butyric acid], the 50% effective concentration (EC50) lay within 200 to 2000 nM.

Consider `O=C(O)CCCOc1c(F)cc(-c2cccc(SC3CCCC3)n2)cc1F` [Example 6, 4-[4-(6-cyclopentylsulfanyl-2-pyridyl)-2,6-difluoro-phenoxy]butyric acid], for which the EC50 is below 200 nM.

Consider `COc1cc(-c2cccnc2SC2CCC2)ccc1OCCCC(=O)O` [Example 7, 4-[4-(2-cyclobutylsulfanyl-pyridin-3-yl)-2-methoxy-phenoxy]-butyric acid], for which the concentration for a half-maximal effect (EC50) is 2000 to 20000 nM.

On to `CC(C)Sc1cc(-c2cc(F)c(OCCCC(=O)O)c(F)c2)ccn1` [Example 8, 4-[2,6-difluoro-4-(2-isopropylsulfanyl-4-pyridyl)phenoxy]butyric acid], for which the EC50 is above 20000 nM.

`Cc1cc(-c2cccnc2SC2CCC2)cc(C)c1OCCCC(=O)O` [Example 10, 4-[4-(2-cyclobutylsulfanyl-pyridin-3-yl)-2,6-dimethyl-phenoxy]-butyric acid]: the half-maximal effective concentration (EC50) is below 200 nM.

On to `O=C(O)CCCOc1c(F)cc(-c2cccc(N3CCCC3)n2)cc1F` [Example 12, 4-[2,6-difluoro-4-(6-pyrrolidin-1-yl-2-pyridyl)phenoxy]butyric acid], for which the EC50 is below 200 nM.

`CCC(C)Sc1ncccc1-c1cc(F)c(OCCCC(=O)O)c(F)c1` (stereo not drawn) [Example 13, 4-[4-(2-sec-butylsulfanyl-pyridin-3-yl)-2,6-difluoro-phenoxy]-butyric acid]: the EC50 lay within 200 to 2000 nM.

Regarding `O=C(O)CCCOc1ccc(-c2cccc(OC3CCCC3)c2)c(F)c1F` [Example 14, 4-[4-[3-(cyclopentoxy)phenyl]-2,3-difluoro-phenoxy]butyric acid], the EC50 is 200 to 2000 nM.

For the compound `O=C(O)CCCOc1c(F)cc(-c2cccc(N3CCCCC3)n2)cc1F` [Example 15, 4-[2,6-difluoro-4-[6-(1-piperidyl)-2-pyridyl]phenoxy]butyric acid], the EC50 fell in the range of 200 to 2000 nM.

On to `O=C(O)CCCOc1c(F)cc(-c2cccc(Nc3ccccc3)n2)cc1F` [Example 16, 4-[4-(6-anilino-2-pyridyl)-2,6-difluoro-phenoxy]butyric acid], for which the EC50 fell in the range of 200 to 2000 nM.

For the compound `CN(c1ccccc1)c1cccc(-c2cc(F)c(OCCCC(=O)O)c(F)c2)n1` [Example 17, 4-[2,6-difluoro-4-[6-(N-methylanilino)-2-pyridyl]phenoxy]butyric acid], the EC50 fell in the range of 200 to 2000 nM.

`O=C(O)CCCOc1c(F)cc(-c2cccc(SC3CCC3)n2)cc1F` [Example 20, 4-[4-(6-cyclobutylsulfanyl-2-pyridyl)-2,6-difluoro-phenoxy]butyric acid]: the EC50 was below 200 nM.

On to `CCCSc1cccc(-c2cc(F)c(OCCCC(=O)O)c(F)c2)n1` [Example 21, 4-[2,6-difluoro-4-(6-propylsulfanyl-2-pyridyl)phenoxy]butyric acid], for which the EC50 is below 200 nM.

As for `CCCOc1cccc(-c2cc(F)c(OCCCC(=O)O)c(F)c2)n1` [Example 23, 4-[2,6-difluoro-4-(6-propoxy-2-pyridyl)phenoxy]butyric acid], the EC50 is below 200 nM.

For `O=C(O)CCCOc1c(F)cc(-c2cccc(OCC3CC3)n2)cc1F` [Example 24, 4-[4-[6-(cyclopropylmethoxy)-2-pyridyl]-2,6-difluoro-phenoxy]butyric acid], the EC50 was below 200 nM.

Take `O=C(O)CCCOc1c(F)cc(-c2cccc(OC3CCC3)n2)cc1F` [Example 25, 4-[4-[6-(cyclobutoxy)-2-pyridyl]-2,6-difluoro-phenoxy]butyric acid]: the EC50 is below 200 nM.

`Cc1cc(-c2cccc(OC3CCC3)n2)ccc1OCCCC(=O)O` [Example 26, 4-[4-[6-(cyclobutoxy)-2-pyridyl]-2-methyl-phenoxy]butyric acid]: the EC50 is below 200 nM.

`O=C(O)CCCOc1ccc(-c2cccc(OC3CCC3)n2)cc1C(F)(F)F` [Example 27, 4-[4-[6-(cyclobutoxy)-2-pyridyl]-2-(trifluoromethyl)phenoxy]butyric acid]: the EC50 is below 200 nM.

For the compound `CC(CCC(=O)O)Oc1c(F)cc(-c2cccnc2SC2CCC2)cc1F` (stereo not drawn) [Example 28, 4-[4-(2-cyclobutylsulfanyl-3-pyridyl)-2,6-difluoro-phenoxy]pentanoic acid], the EC50 is below 200 nM.

Take `CC(CCC(=O)O)Oc1c(F)cc(-c2cccc(OC3CCC3)n2)cc1F` (stereo not drawn) [Example 29, 4-[4-[6-(cyclobutoxy)-2-pyridyl]-2,6-difluoro-phenoxy]pentanoic acid]: the EC50 is below 200 nM.

As for `CC(CCC(=O)O)Oc1ccc(-c2cccnc2SC2CCC2)cn1` (stereo not drawn) [Example 30, 4-[[5-(2-cyclobutylsulfanyl-3-pyridyl)-2-pyridyl]oxy]pentanoic acid], the EC50 was above 20000 nM.

As for `CC(C)CCSc1ncccc1-c1cc(F)c(OCCCC(=O)O)c(F)c1` [Example 31, 4-{2,6-difluoro-4-[2-(3-methyl-butylsulfanyl)-pyridin-3-yl]-phenoxy}-butyric acid], the EC50 lay within 200 to 2000 nM.

Consider `O=C(O)CCCOc1c(F)cc(-c2cccnc2OCCF)cc1F` [Example 32, 4-{2,6-difluoro-4-[2-(2-fluoro-ethoxy)-pyridin-3-yl]-phenoxy}-butyric acid], for which the half-maximal effective concentration (EC50) was above 20000 nM.

In the case of `O=C(O)CC1(COc2c(F)cc(-c3cccnc3SC3CCC3)cc2F)CC1` [Example 33, 2-[1-[[4-(2-cyclobutylsulfanyl-3-pyridyl)-2,6-difluoro-phenoxy]methyl]cyclopropyl]acetic acid], the EC50 lay within 200 to 2000 nM.

In the case of `O=C(O)CCCOc1ccc(-c2cccc(OC3CCC3)c2)nc1` [Example 35, 4-[[6-[3-(cyclobutoxy)phenyl]-3-pyridyl]oxy]butyric acid], the EC50 was in the range of 200 to 2000 nM.

`O=C(O)CCCOc1ccc(-c2cccc(OC3CCCC3)c2)nc1` [Example 36, 4-[[6-[3-(cyclopentoxy)phenyl]-3-pyridyl]oxy]butyric acid]: the EC50 was in the range of 200 to 2000 nM.

Regarding `O=C(O)CCCOc1ccc(-c2ccccc2Oc2ccccc2)cc1` [Example 37, 4-(2′-phenoxy-biphenyl-4-yloxy)-butyric acid], the EC50 is below 200 nM.

As for `CC(C)Sc1ncccc1-c1ccc(OCCCC(=O)O)cc1` [Example 38, 4-[4-(2-isopropylsulfanyl-pyridin-3-yl)-phenoxy]-butyric acid], the EC50 was 200 to 2000 nM.

As to `O=C(O)CCCOc1c(F)cc(-c2ccccc2Oc2ccccc2)cc1F` [Example 39, 4-(3,5-difluoro-2′-phenoxy-biphenyl-4-yloxy)-butyric acid], the concentration for a half-maximal effect (EC50) was below 200 nM.
